From US11111249B2, “Heteroaryl-pyrazole derivative, and preparation method therefor and medical application thereof” (Jiangsu Hengrui Medicine Co., Ltd., priority 2017, dated 2021)

What was measured:
hERG potassium channels = molecular target: T1, hERG potassium channels (Homo sapiens, UniProt Q12809); assay: Blocking effect on hERG potassium current, automatic patch-clamp, HEK293-hERG stable cell line; format: cell-based
T1 construct: expressed in transfected cells
Protocol: The blocking effect of the compound of the present application on hERG potassium current was tested using an automatic patch-clamp on a stable cell line transfected with hERG potassium channels.
The HEK293-hERG stable cell line was subcultured at a density of 1:4 in MEM/EBSS medium (10% FBS, 400 μg/mL G418, 1% MEM non-essential amino acid solution (100×), 1% sodium pyruvate solution) and cultured within 48-72 hours for automatic patch-clamp experiments. On the day of the experiment, the cells were digested with 0.25% trypsin, collected by centrifugation and resuspended with extracellular fluid (140 mM NaCl, 4 mM KCl, 1 mM MgCl2, 2 mM CaCl2, 5 mM MD glucose monohydrate, 10 mM Hepes, pH 7.4, 298 mOsmol) to give a cell suspension. […] The currents at each concentration of the compound and the blank control current were analyzed by HEAK Patchmaster, HEAK EPC 10 patch clamp amplifiers (Nanion) and Pathlinersoftware and data analysis software provided by Pathcontrol HTsoftware.
Blocking effect of the compound of the present application on hERG potassium current was determined by the above experimental method, and the IC50 values were as shown in Table 5.

CYP3A4 = molecular target: T2, CYP3A4 (Homo sapiens, UniProt P08684); assay: Inhibition of the midazolam metabolic site on human liver microsome CYP3A4; format: in vitro ADME; conditions: human liver microsomes, midazolam substrate, 30 minutes
T2 construct: Human liver microsomes (Corning Gentest); tissue Corning Gentest; host or cells: human liver microsomes
T2 sequence (P08684 whole entry): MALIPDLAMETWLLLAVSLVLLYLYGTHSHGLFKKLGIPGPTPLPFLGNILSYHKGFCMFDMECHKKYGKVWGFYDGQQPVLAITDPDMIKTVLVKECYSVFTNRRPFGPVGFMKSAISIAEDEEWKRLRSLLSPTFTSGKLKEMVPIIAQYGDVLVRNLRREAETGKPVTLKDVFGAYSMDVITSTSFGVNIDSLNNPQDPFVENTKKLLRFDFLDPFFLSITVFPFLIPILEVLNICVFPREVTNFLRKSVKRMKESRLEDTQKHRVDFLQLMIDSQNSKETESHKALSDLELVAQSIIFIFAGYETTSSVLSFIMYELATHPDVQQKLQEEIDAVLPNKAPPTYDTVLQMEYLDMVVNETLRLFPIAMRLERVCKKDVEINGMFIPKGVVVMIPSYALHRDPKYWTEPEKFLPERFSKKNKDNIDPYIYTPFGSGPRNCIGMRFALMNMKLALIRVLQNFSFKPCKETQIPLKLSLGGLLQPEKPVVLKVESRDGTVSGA
Protocol: The enzymatic activity of the compound of the present application against the Midazolam metabolite site on human liver microsome CYP3A4 was determined by the following experimental method:
CYP probe substrate (15 μM Midazolam, SIGMA UC429) and positive control inhibitor (Ketoconazole, SIGMA K1003).
100 mM PBS buffer was configured, and 2.5 mg/mL microsome solution and 5 mM NADPH solution were prepared with this buffer, and the 5× concentration compound working solution was diluted with PBS (150, 50, 15, 5, 1.5, 0.15, 0.015, 0 μM). The 5× concentration of Ketoconazole working solution (150, 50, 15, 5, 1.5, 0.15, 0.015, 0 μM) was diluted with PBS. Midazolam working solution was diluted to a concentration of 15 μM with PBS.
20 μL each of 2.5 mg/mL microsome solution, 15 μM Midazolam working solution, MgCl2 solution and compound working solution (150, 50, 15, 5, 1.5, 0.15, 0.015, 0 μM, each concentration was setted differently reaction system) were taken and mixed evenly. The compound was replaced with the same concentration of Ketoconazole at the positive control group. At the same time, 5 mM NADPH solution was pre-incubated for 5 minutes at 37° C. After 5 minutes, 20 μL NADPH were added into the wells, and the reaction was started and incubated for 30 minutes. All samples were incubated for two samples. […]

[1] = tested on: peripheral blood mononuclear cells (PBMC); assay: Stimulation of the secretion of IFN-α from PBMC (HTRF); format: cell-based, human; conditions: lowest concentration giving cytokine level at least 3 times the minimum detection limit; 24 hours
Protocol: The ability of the compound of the present application to stimulate the secretion of IFN-α from PBMC was determined by the following experimental method:
Compounds were diluted in pure DMSO at a maximum concentration of 5 mM in 4-fold gradients for a total of 9 points. Then 4 μL of the compound were taken and added to 196 μL of RMPI 1640 medium containing 10% FBS and mixed. 50 μL per well were taken and added into a new 96-well cell culture plate.
All reagents were equilibrated to room temperature, and a 250 mL culture flask was taken and 60 mL blood and PBS+2% FBS were added therein, and the mixture was gently diluted by pipetting. […] The cells were resuspend with RMPI 1640 medium containing 10% FBS and counted, adjusted the amount of PBMC to 3.33×10^6 cells/mL, and 150 μL were taken and added to the cell culture plate to which the compound had been added, and cultured at 37° C. in a 5.0% CO2 incubator for 24 hours. […]
It was read in the HTRF mode on the PHERAStar. […]
The ability of the compound of the present application and the control compound (prepared by the method of embodiment 21 of WO2016023511) to stimulate the secretion of IFN-α from PBMC were determined by the above test, and the measured MEC values were as shown in Table 2.

T1 sequence (Q12809 whole entry): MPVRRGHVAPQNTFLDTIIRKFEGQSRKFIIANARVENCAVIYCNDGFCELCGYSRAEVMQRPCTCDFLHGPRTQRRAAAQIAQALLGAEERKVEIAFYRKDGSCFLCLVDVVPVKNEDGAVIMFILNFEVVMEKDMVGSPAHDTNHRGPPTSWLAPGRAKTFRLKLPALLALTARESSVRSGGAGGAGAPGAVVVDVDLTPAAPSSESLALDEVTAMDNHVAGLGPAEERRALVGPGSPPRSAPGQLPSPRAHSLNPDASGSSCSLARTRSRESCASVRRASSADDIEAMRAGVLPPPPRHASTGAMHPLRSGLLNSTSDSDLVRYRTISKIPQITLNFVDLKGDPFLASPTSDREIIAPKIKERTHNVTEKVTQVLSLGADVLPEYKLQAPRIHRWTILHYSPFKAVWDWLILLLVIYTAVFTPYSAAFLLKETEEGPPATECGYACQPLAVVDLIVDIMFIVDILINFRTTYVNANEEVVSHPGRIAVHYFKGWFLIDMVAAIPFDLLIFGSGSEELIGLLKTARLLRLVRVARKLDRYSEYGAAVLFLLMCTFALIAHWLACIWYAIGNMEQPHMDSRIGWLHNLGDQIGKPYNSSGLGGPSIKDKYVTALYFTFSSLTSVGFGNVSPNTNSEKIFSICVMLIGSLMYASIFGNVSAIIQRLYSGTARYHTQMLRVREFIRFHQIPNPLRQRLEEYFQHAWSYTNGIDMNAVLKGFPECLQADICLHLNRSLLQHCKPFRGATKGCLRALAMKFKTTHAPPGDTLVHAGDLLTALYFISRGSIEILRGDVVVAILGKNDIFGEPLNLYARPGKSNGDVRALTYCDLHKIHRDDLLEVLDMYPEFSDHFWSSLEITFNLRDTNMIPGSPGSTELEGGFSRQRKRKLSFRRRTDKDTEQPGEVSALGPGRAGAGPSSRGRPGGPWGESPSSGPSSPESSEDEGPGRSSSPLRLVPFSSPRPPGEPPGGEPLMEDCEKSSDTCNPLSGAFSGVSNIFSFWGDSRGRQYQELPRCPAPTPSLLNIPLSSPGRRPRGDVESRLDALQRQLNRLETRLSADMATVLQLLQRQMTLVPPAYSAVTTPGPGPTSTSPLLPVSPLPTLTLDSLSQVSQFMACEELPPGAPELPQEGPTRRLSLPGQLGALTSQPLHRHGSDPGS

Structure (SMILES) | IC50 (hERG potassium channels) [µM] | IC50 (CYP3A4) [µM] | MEC (Minimal Effective Concentration) to stimulate the secretion of IFN-α from PBMC [1] [nM]
CCCCOc1nc(N)c2[nH]nc(Cc3ccc(CN4CCCC4)cc3)c2n1 [Embodiment 1, 5-Butoxy-3-(4-(pyrrolidin-1-ylmethyl)benzyl)-1H-pyrazolo[4,3-d]pyrimidin-7-amine] | > 30 | 16.7 | 0.28
CCCCOc1nc(N)c2[nH]cc(Cc3ccc(CN4CCCC4)cc3)c2n1 [Embodiment 21 of WO2016023511] | 3.6 | 1.02 | 5.5
